Laboratory results published in patent publication US12522582B2 (Gilead Sciences, Inc., priority 2022, dated 2026).
Like-named read-outs stand apart in the source and are kept apart here.

Assays:
[1] = MT-4 CC50 Assay (CellTiter Glo); type: cell-based; conditions: human, MT-4 cells, luminescence, read-out: CC50-MT4
Protocol: Compounds were tested in 384-well plates: 18 compounds in duplex. Compounds were diluted in 7 points, 3-fold with DMSO by Bravo. Assay plate, which contains 20 uL medium with compounds, was seeded 2000 MT-4 cells in 20 uL/well by Multi-drop to start the assay. The plate was incubated at 37° C. for 5 days. On 6th day, the CellTiter Glo 40 uL was added in each well. Luminescence was read by Victor II.

HSV-2 virus (MS strain) = assay: HSV-2 Cellomics Assay (immunofluorescence of HSV protein gD in infected ARPE-19 cells); conditions: Human alphaherpesvirus 2, ARPE-19, 16 h
Protocol: Compounds were tested for their ability to inhibit HSV-2 replication by monitoring the expression of the HSV protein gD using a high-throughput immunofluorescence-based assay. 10-dose, 3-fold serial dilutions of compounds were prepared at starting concentrations of 0.2 or 2 mM in 100% DMSO. […] The final starting concentration in the assay was either 1 or 10 μM. DMSO (no compound) and pritelivir were included on each microplate as negative and positive controls, respectively.
Prior to confluence, cells were transferred to a centrifuge tube and spun for 5 minutes at 1000 rpm. Cells were resuspended in assay medium (DMEM/F-12 Glutamax, 2% FBS, 1% Penicillin-Streptomycin) and counted. Cell density was adjusted to 150,000 cells/ml and infected with HSV-2 virus (MS strain, ATCC cat #VR-540) at a MOI of 0.06 in a 50 ml conical tube for 1 hour under constant rocking. Cells were then spun for 5 minutes at 1000 rpm and the media replaced with assay medium containing either 2% FBS or 10% human serum (EMD Millipore cat #S1-100 ML). 50 μl of the infection suspension were added into microplate wells that were pre-spotted with compounds (7,500 cells per well). Plates were incubated for 16 hours at 37° C.
After a 30-minute incubation at room temperature, plates were washed 4 times with 100 μl/well of PBS using a Biotek plate washer. […] Plates were washed 4 times again and 50 μl of DPBS were added to all wells prior to sealing the plates with a black adhesive seal. Fluorescence was measured on a Cellomics plate reader.
Data analysis was carried out using the Thermo Scientific HCS Studio software. Briefly, cells were identified using the DAPI nuclear stain and thresholds were set to filter cells out based on shape and size. A second threshold based on green fluorescence intensity (detection of HSV-2 gD) was set to identify HSV-2 infected cells. Data was reported as the average fluorescence intensity of HSV-2 infected cells.

[2] = read-out: EC50-HSV2-10% Human Serum

Structure (SMILES) | CC50 at 5 days [1] [µM] | EC50 (HSV-2 virus (MS strain); [2]) [µM] | EC50 (HSV-2 virus (MS strain); read-out: EC50-HSV2-FBS) [µM]
C[C@@H]1Cc2cc(Br)c(S(N)(=O)=O)cc2N1C(=O)[C@@H]1Cc2ccc(-c3ccccn3)cc2C1 [Example 38, (R)-5-bromo-2-methyl-1-((R)-5-(pyridin-2-yl)-2,3-dihydro-1H-indene-2-carbonyl)indoline-6-sulfonamide] | ≥ 10 | 0.543 | 0.019
CC1c2ccc(-n3cccn3)cc2CC1C(=O)N1CCc2cc(F)c(S(N)(=O)=O)cc21 (centres unmarked) [Example 100] | 5.43 | 0.107 | 0.034
C[S@](=N)(=O)c1ccc2c(c1)N(C(=O)[C@@H]1Cc3ccc(-c4ccccn4)cc3C1)CC2 (single isomer, unassigned) [Example 33] | ≥ 50 | 1.37 | 0.165
C[C@@H]1Cc2ccc(S(N)(=O)=O)cc2N1C(=O)C1Cc2cc(-c3ccccn3)ccc2O1 (some centres unmarked) [Example 57] | ≥ 10 | 0.381 | 0.035
NS(=O)(=O)c1ccc2c(c1)N(C(=O)[C@@H]1Cc3ccc(-c4ccccn4)cc3C1)CC21CC1 [Example 64, (R)-1′-(5-(pyridin-2-yl)-2,3-dihydro-1H-indene-2-carbonyl)spiro[cyclopropane-1,3′-indoline]-6′-sulfonamide] | ≥ 10 | ≥ 10 | 0.115
NS(=O)(=O)c1ccc2c(c1)N(C(=O)C1Cc3ccc(-n4cccn4)cc3C1)CC2 (centres unmarked) [Example 78, 1-(5-(1H-pyrazol-1-yl)-2,3-dihydro-1H-indene-2-carbonyl)indoline-6-sulfonamide] | ≥ 50 | 20.7 | 0.065
NS(=O)(=O)c1ccc2c(c1)N(C(=O)[C@@H]1Cc3ccc(-c4cccc(F)n4)cc3C1)CC2 [Example 85, (R)-1-(5-(6-fluoropyridin-2-yl)-2,3-dihydro-1H-indene-2-carbonyl)indoline-6-sulfonamide] | 0.33 | 7.5 | 0.0089
NS(=O)(=O)c1ccc2c(c1)N(C(=O)C1Cc3ccc(-c4cscn4)cc3C1)CC2 (centres unmarked) [Example 19] | 37.7 | ≥ 25 | 0.023
C[C@@H]1Cc2cc(F)c(S(N)(=O)=O)cc2N1C(=O)[C@@H]1Cc2ccc(-c3cc(F)ccc3Cl)cc2C1 [Example 50, (R)-1-((R)-5-(2-chloro-5-fluorophenyl)-2,3-dihydro-1H-indene-2-carbonyl)-5-fluoro-2-methylindoline-6-sulfonamide] | ≥ 10 | 0.214 | 0.061
C[C@@H]1c2cc(F)c(S(N)(=O)=O)cc2N(C(=O)[C@@H]2Cc3ccc(-c4ccccn4)cc3C2)[C@@H]1C [Example 48, (2R,3R)-5-fluoro-2,3-dimethyl-1-((R)-5-(pyridin-2-yl)-2,3-dihydro-1H-indene-2-carbonyl)indoline-6-sulfonamide] | ≥ 10 | 0.104 | 0.016
NS(=O)(=O)c1ccc2c(c1)N(C(=O)C1Cc3ccc(-c4cocn4)cc3C1)CC2 (centres unmarked) [Example 23] | ≥ 50 | 11 | 0.019
NS(=O)(=O)c1ccc2c(c1)N(C(=O)[C@H]1Cc3ccc(-c4ncccc4F)cc3C1)CC2 [Example 88, (S)-1-(5-(3-fluoropyridin-2-yl)-2,3-dihydro-1H-indene-2-carbonyl)indoline-6-sulfonamide] | 1.8 |  | 0.535
CC[C@@H]1Cc2cc(F)c(S(N)(=O)=O)cc2N1C(=O)[C@@H]1Cc2ccc(-c3ccccn3)cc2C1 [Example 113] | ≥ 10 | 0.168 | 0.019
CC1c2ccc(-c3ccccn3)cc2CC1C(=O)N1CCc2cc(F)c(S(N)(=O)=O)cc21 (centres unmarked) [Example 96, 5-fluoro-1-(1-methyl-5-(pyridin-2-yl)-2,3-dihydro-1H-indene-2-carbonyl) indoline-6-sulfonamide] | 12.9 | 0.085 | 0.024
C[S@](=N)(=O)c1cc2c(cc1F)CCN2C(=O)[C@@H]1Cc2ccc(-c3ccccn3)cc2C1 [Example 41, (S)-(5-fluoro-1-((R)-5-(pyridin-2-yl)-2,3-dihydro-1H-indene-2-carbonyl)indolin-6-yl)(imino)(methyl)-16-sulfanone] | ≥ 10 | 0.14 | 0.037
Cc1cccc(-c2ccc3c(c2)C[C@H](C(=O)N2CCc4ccc(S(N)(=O)=O)cc42)C3)n1 [Example 90, (R)-1-(5-(6-methylpyridin-2-yl)-2,3-dihydro-1H-indene-2-carbonyl)indoline-6-sulfonamide] | 36.9 | 14.6 | 0.023
C[C@@H]1Cc2ccc(S(N)(=O)=O)cc2N1C(=O)[C@H]1Cc2cc(-c3cc(F)ccc3F)ccc2O1 [Example 123, (R)-1-((R)-5-(2,5-difluorophenyl)-2,3-dihydrobenzofuran-2-carbonyl)-2-methylindoline-6-sulfonamide] | ≥ 10 | 0.291 | 0.046
Cc1cc2c(cc1S(N)(=O)=O)N(C(=O)[C@@H]1Cc3ccc(-c4ccccn4)cc3C1)[C@H](C)C2 [Example 63, (R)-2,5-dimethyl-1-((R)-5-(pyridin-2-yl)-2,3-dihydro-1H-indene-2-carbonyl)indoline-6-sulfonamide] | ≥ 10 | 0.912 | 0.025
NS(=O)(=O)c1ccc2c(c1)N(C(=O)[C@@H]1Cc3ccc(-n4cccn4)cc3C1)CC2 [Example 91, (R)-1-(5-(1H-pyrazol-1-yl)-2,3-dihydro-1H-indene-2-carbonyl)indoline-6-sulfonamide] | ≥ 50 | 11.6 | 0.04
Cc1cccc(-c2ccc3c(c2)CC(C(=O)N2CCc4cc(F)c(S(N)(=O)=O)cc42)C3C)n1 (centres unmarked) [Example 99, 5-fluoro-1-(1-methyl-5-(6-methylpyridin-2-yl)-2,3-dihydro-1H-indene-2-carbonyl) indoline-6-sulfonamide] | ≥ 10 | 0.396 | 0.063
NS(=O)(=O)c1cc2c(cc1F)CCN2C(=O)C1Cc2cc(-c3ccccn3)ccc2O1 (centres unmarked) [Example 37] | ≥ 50 | 19.3 | 0.01
C[C@H]1CN(C(=O)[C@H]2Cc3cc(-c4ccccn4)ccc3[C@@H]2C)c2cc(S(N)(=O)=O)c(F)cc21 [Example 104, (R)-5-fluoro-3-methyl-1-((1R,2S)-1-methyl-5-(pyridin-2-yl)-2,3-dihydro-1H-indene-2-carbonyl)indoline-6-sulfonamide] | ≥ 10 | 0.0644 | 0.02
NS(=O)(=O)c1ccc2c(c1)N(C(=O)C1Cc3cc(-c4ccccn4)ccc3O1)CC2 (centres unmarked) [Example 36] | ≥ 50 | ≥ 25 | 0.071
C[C@H]1CN(C(=O)[C@@H]2Cc3ccc(-c4ccccn4)cc3C2)c2cc(S(N)(=O)=O)ccc21 [Example 107, (R)-3-methyl-1-((R)-5-(pyridin-2-yl)-2,3-dihydro-1H-indene-2-carbonyl)indoline-6-sulfonamide] |  | ≥ 25 | 0.095
NS(=O)(=O)c1ccc2c(c1)N(C(=O)C1Cc3ccc(-n4cncn4)cc3C1)CC2 (centres unmarked) [Example 79, 1-(5-(1H-1,2,4-triazol-1-yl)-2,3-dihydro-1H-indene-2-carbonyl)indoline-6-sulfonamide] |  |  | 2.06
C[C@@H]1c2cc(F)c(S(N)(=O)=O)cc2N(C(=O)[C@@H]2Cc3ccc(-c4ccccn4)cc3C2)[C@H]1C [Example 47, (2S,3R)-5-fluoro-2,3-dimethyl-1-((R)-5-(pyridin-2-yl)-2,3-dihydro-1H-indene-2-carbonyl)indoline-6-sulfonamide] |  | 3.66 | 0.423
NS(=O)(=O)c1cc(F)c2c(c1)N(C(=O)C1Cc3ccc(-c4ccccn4)cc3C1)CC2 (centres unmarked) [Example 6] |  | ≥ 25 | 0.072
C[C@@H]1Cc2cc(F)c(S(N)(=O)=O)cc2N1C(=O)[C@H]1Cc2ccc(-c3ccccn3)cc2C1 [Example 141, (R)-5-fluoro-2-methyl-1-((S)-5-(pyridin-2-yl)-2,3-dihydro-1H-indene-2-carbonyl)indoline-6-sulfonamide] |  | 2.63 | 0.293
CC1CN(C(=O)[C@H]2Cc3cc(-c4ccccn4)ccc3[C@@H]2C)c2cc(S(N)(=O)=O)ccc21 (stereo partly drawn) [Example 102, 3-methyl-1-((1R,2S)-1-methyl-5-(pyridin-2-yl)-2,3-dihydro-1H-indene-2-carbonyl) indoline-6-sulfonamide] |  | 0.905 | 0.16
NS(=O)(=O)c1ccc2c(c1)N(C(=O)C1Cc3ccc(-c4ccccn4)c(F)c3C1)CC2 (centres unmarked) [Example 10] |  |  | 0.537
